US20240041813A1, “VERY-LONG-CHAIN POLYUNSATURATED FATTY ACIDS, ELOVANOID HYDROXYLATED DERIVATIVES, AND METHODS OF USE” (priority 2020, published 2024)
Entries after “also recorded” stand apart in the source; their conditions may differ.

Experiments:
[1] = tested on: human corneal epithelial cells (HCEC); assay: HCEC challenged with IFNγ: SASP secretome (β-Gal staining); type: cell-based; details: HCEC 24 h after IFN-γ challenge
ACE2 = assay: Rat cornea alkali burn: corneal RNA-seq, Ace2 gene expression; type: in vivo; details: rat cornea after alkali burn; eye drops 3 times/day for 14 days; RNA-seq day 14
Procedure: The rats were anesthetized by intraperitoneal injection of Ketamine (50-100 mg/kg) plus xylazine (5-10 mg/kg). A 4 mm diameter filter paper soaked in 1 N NaOH was placed on the central cornea of the right eye for 45 seconds, and then the eye was thoroughly washed with […] of saline. After injury, the rats were randomly divided into five treatment groups: vehicle; lipoxin A4 (LXA4) from Cayman Chemical (Ann Arbor, MI, USA); R,R Resolvin D6 isomer (RvD6i), R,R neuroprotection D (NPD1), and elovanoid (ELV)-N32. All lipid solutions were prepared at the final concentration of […] using PBS with the minimal contamination of ethanol by evaporating the ethanol and immediately dissolve the lipids in PBS, then vortex well for 2 min. Topical administration (20 μl) was done 3×/day for 14 days. The experiments were double-blinded with the lipid mediators coded during the whole experiments. At the end of the study, when all data was collected, the code was opened.
Injured corneas (n=5/condition) were harvested and homogenized with TRIzol (Thermo Fisher Scientific) on ice with a glass Dounce homogenizer. RNA sequencing was performed as described^14. Briefly, after mRNA extraction and determination of purity, 8 ng of total RNA was reverse transcribed, and total cDNAs were amplified using ISPCR primer, and the library was made with the Nextera XT DNA library preparation kit (Illumina, San Diego, CA, USA). The libraries were pooled with the same molarity and sequenced using the NextSeq 500/550 High Output Kit v2 (75 cycles, Illumina). After demultiplexing, RNA-seq data were aligned to the Rattus Norvegicus reference genome (.ensembl.org/pub/release-98/fasta/rattus_norvegicus/dna/) using the Subread package v2.0.1 alignment function39. The BAM files for sequencing data alignment were counted using featureCounts function of Subread tool^40 using the macOS Catalina. The raw count data were subjected to differential gene expression analysis using DESeq2 package for R^41 with the vehicle group as reference. The adjusted p-values were named as the false discover rate (FDR).

Alexa 594-RBD = type: in vivo; details: rat cornea after alkali burn; 14 days treatment; Alexa 594-RBD 1 μg/eye, 3 times at day 15, examined a day later

Compound: CC/C=C\CC(O)\C=C/C=C/C=C/C(O)C/C=C\C/C=C\CCCCCCCCCCCCC(=O)O [ELV-N32, (14Z,17Z,20R,21E,23E,25Z,27S,29Z)-20,27-dihydroxydo-triaconta-14,17,21,23,25,29-hexaenoic acid]
- senescence programming genes and SASP secretome activation (β-Gal) [1]: blocked; also recorded: suppressed
- Ace2 gene expression levels (ACE2): decrease
- binding of Alexa 594-RBD to injured cornea (Alexa 594-RBD): decrease; also recorded: counteracted
